Laboratory results published in patent publication US20100093760A1, “METHODS FOR IDENTIFYING COMPOUNDS THAT MODULATE CELL SIGNALING AND METHODS EMPLOYING SUCH COMPOUNDS” (The General Hospital Corporation, priority 2006, published 2010).
“Also recorded” adds a separate entry of the source.

System: caALK6
Experiment: Constitutively-active ALK6 transfection: phospho-SMAD1/5/8 immunoblot and Id1 promoter (BRE-Luc)
Type: cell-based
Experimental: Cell extracts or tissues were mechanically homogenized in SDS-lysis buffer (62.5 mM Tris-HCl (pH 6.8), 2% SDS, 10% glycerol, 50 mM DTT, 0.01% bromophenol blue); separated by SDS-PAGE; immunoblotted with anti-phospho-SMAD1/5/8, anti-phospho-SMAD2 (Cell Signaling, Beverly, Mass.), or anti-α-tubulin (Upstate/Millipore, Billerica, Mass.) Abs; and visualized using ECL Plus (GE Healthcare, Piscataway, N.J.). Levels of immunoreactive proteins were quantitated by ImageQuant software on a Storm phosphorimager (GE Healthcare).
Murine PASMCs grown to 50% confluence in 6-well plates were transiently transfected with 0.3 μg Id1 promoter luciferase reporter construct (BRE-Luc, Dr. Peter ten Dijke, Leiden University Medical Center, Netherlands (Korchynskyi et al., J. Biol. Chem. 277:4883-4891, 2002)) in combination with 0.6 μg plasmids expressing constitutively-active forms of BMP type I receptors (caALK2, caALK3, or caALK6, kindly provided by Dr. Kohei Miyazono, University of Tokyo, Japan (Fujii et al., Mol. Biol. Cell 10:3801-3813, 1999)), using Fugene6 (Roche). To assess Activin and […] type I receptor function, PASMCs were transiently transfected with 0.3 μg PAI-1 promoter luciferase reporter construct (CAGA-Luc, Dr. Peter ten Dijke (Dennler et al., Embo J. 17:3091-3100, 1998)) in combination with 0.6 μg plasmids expressing constitutively active forms of type I receptors (caALK4, caALK5, and caALK7, also provided by Dr. Kohei Miyazono (Okadome et al., J. Biol. Chem. 271:21687-21690, 1996; Shimizu et al., Genes Cells 3:125-134, 1998)). For both reporters, 0.2 μg pRL-TK Renilla luciferase (Promega) was used to control for transfection efficiency. PASMCs were incubated with Compound C/Dorsomorphin (4-10 μM) or vehicle starting one hour after transfection, for 24 hours or completion of the experiment. Cell extracts were harvested, and relative promoter activity quantitated by the ratio of firefly to Renilla luciferase activity using the dual luciferase assay kit (Promega). […] Hepcidin promoter activity was measured by luciferase assay as above.

## c1cc(-c2cnn3cc(-c4ccc(OCCN5CCCCC5)cc4)cnc23)ccn1 [Compound C/Dorsomorphin]
BMPR-II-deficient PASMCs, 10 μM, immunoblot
  effect on caALK6-induced increase in phospho-SMAD1/5/8: inhibited
BMPR-II-deficient PASMCs, 0.5-20 μM
  effect on caALK6-mediated Id1 promoter activity (BRE-Luc): inhibited; also recorded: decreased
BRE-Luc, FIG. 21h
  selectivity among constitutively-active BMP type I receptors: apparent selectivity for caALK2 and caALK3 over caALK6
